Calls of active or inactive are those of the source. No cut-off for these calls is given here.
What was measured:
[1] = biological target: T1, DNA topoisomerase 1 (Homo sapiens) (UniProt P11387); experiment: Inhibition of recombinant Top1 (unknown origin) assessed as inhibition of relaxation of supercoiled pBR322 plasmid DNA at 100 uM incubated for 15 mins by ethidium bromide staining based agarose gel electrophoresis analysis
T1 sequence (whole entry): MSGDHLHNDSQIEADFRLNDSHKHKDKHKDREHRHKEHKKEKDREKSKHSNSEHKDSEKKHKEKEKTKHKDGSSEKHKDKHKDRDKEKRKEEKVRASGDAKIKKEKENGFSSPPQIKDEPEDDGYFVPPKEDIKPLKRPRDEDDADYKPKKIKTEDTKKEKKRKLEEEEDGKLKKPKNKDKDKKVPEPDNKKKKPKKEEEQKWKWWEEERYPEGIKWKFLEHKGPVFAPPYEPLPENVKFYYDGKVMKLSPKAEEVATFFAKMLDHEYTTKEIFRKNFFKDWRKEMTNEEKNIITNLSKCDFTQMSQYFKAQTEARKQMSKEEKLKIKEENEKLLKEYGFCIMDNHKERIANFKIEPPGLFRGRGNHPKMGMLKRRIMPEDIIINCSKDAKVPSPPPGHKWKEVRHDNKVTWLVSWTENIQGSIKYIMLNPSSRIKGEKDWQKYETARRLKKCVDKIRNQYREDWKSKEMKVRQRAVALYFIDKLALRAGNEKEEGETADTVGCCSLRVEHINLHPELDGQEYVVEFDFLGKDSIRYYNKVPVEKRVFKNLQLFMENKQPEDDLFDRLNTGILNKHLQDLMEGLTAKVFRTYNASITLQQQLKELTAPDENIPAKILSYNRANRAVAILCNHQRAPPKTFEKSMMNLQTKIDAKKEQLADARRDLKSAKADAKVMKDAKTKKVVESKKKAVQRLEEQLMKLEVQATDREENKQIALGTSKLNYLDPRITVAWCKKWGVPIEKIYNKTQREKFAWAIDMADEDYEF

Histone deacetylase 1 [2] = biological target: T2, Histone deacetylase 1 (Homo sapiens, UniProt Q13547); experiment: Inhibition of full-length recombinant human HDAC1 expressed in Baculovirus expression system using Ac-Leu-Gly-Lys(Ac)-AMC as substrate preincubated for 5 mins followed by substrate addition and further incubated for 30 mins by fluorescence based microtiter plate reader assay
MCF7 = experiment: Antiproliferative activity against human MCF7 cells assessed as cell growth inhibition incubated for 8 hrs by CCK8 assay; assay type: functional, cell-based; details: MCF7, 8 h
[3] = biological target: DNA topoisomerase 2-alpha (Homo sapiens) (UniProt P11388); experiment: Inhibition of recombinant Top2 (unknown origin) assessed as inhibition of relaxation of supercoiled pBR322 plasmid DNA at 100 uM incubated for 15 mins by ethidium bromide staining based agarose gel electrophoresis analysis
Histone deacetylase 2 = Histone deacetylase 2 (Homo sapiens, UniProt Q92769); experiment: Inhibition of recombinant full length C-terminal GST tagged human HDAC2 expressed in baculovirus infected Sf9 insect cells using Ac-Leu-Gly-Lys(Ac)-AMC as substrate preincubated for 5 mins followed by substrate addition and further incubated for 30 mins by fluorescence based microtiter plate reader assay
[4] = biological target: T3, Protein deacetylase HDAC6 (Homo sapiens, UniProt Q9UBN7); experiment: Inhibition of full-length recombinant N-terminal GST-tagged human HDAC6 expressed in baculovirus infected Sf9 cells using Ac-Leu-Gly-Lys(Ac)-AMC as substrate preincubated for 5 mins followed by substrate addition and further incubated for 30 mins by fluorescence based microtiter plate reader assay
T3 sequence (Q9UBN7 whole entry): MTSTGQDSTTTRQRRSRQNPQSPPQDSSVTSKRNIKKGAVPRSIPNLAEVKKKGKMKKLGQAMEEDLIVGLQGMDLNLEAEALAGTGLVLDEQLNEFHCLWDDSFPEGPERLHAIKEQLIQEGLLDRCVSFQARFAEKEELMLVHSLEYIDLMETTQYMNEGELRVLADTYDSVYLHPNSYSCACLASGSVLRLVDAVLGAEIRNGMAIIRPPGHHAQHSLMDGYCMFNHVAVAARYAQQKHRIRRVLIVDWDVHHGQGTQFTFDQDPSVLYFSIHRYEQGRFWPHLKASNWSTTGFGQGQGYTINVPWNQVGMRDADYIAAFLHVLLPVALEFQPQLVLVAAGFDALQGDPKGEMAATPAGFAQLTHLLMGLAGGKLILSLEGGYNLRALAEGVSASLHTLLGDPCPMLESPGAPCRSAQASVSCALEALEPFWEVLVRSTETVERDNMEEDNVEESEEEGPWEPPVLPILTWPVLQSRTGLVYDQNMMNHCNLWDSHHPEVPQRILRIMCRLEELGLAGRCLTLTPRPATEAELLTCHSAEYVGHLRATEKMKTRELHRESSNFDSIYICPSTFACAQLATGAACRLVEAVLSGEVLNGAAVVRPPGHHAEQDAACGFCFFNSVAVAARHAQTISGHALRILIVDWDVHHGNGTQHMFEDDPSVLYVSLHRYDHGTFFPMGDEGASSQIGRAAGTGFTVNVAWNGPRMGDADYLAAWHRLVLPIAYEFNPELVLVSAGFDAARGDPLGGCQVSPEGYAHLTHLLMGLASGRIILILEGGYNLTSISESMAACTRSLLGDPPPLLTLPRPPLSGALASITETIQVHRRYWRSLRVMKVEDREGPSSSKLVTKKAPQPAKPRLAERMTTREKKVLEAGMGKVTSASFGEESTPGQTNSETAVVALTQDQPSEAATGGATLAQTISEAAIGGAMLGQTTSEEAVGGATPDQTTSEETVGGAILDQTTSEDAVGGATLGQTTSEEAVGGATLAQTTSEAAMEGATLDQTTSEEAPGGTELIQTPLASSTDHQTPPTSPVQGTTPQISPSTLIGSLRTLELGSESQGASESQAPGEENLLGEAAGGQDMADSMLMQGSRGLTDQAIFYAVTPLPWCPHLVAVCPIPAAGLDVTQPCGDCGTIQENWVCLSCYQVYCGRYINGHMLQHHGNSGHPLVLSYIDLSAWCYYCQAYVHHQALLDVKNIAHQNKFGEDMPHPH

Histone deacetylase 1 [5] = biological target: T2, Histone deacetylase 1; experiment: Inhibition of HDAC1 in HEL cells assessed as increase in acetyl-H3 levels at 20 to 100 nM incubated for 24 hrs by western blot analysis; assay type: cell-based; details: dose 20-100 nM
HEL [6] = experiment: Induction of apoptosis in HEL cells assessed as apoptotic cells at 0.1 uM incubated for 48 hrs by annexin V-FITC/PI staining based flow cytometry (reference value: 3.95%); assay type: functional, Homo sapiens
HEL [7] = experiment: Induction of cell cycle arrest in HEL cells assessed as change in S-phase ratio at 0.02 uM incubated for 48 hrs by PI staining based flow cytometry relative to control; assay type: functional, Homo sapiens
HEL [8] = experiment: Induction of cell cycle arrest in HEL cells assessed as change in S-phase ratio at 0.5 uM incubated for 48 hrs by PI staining based flow cytometry relative to control; assay type: functional, Homo sapiens
[9] = Metabolic stability in ICR mouse liver microsome assessed as half life; assay type: ADME; details: liver microsomes
[10] = Toxicity in BALB/C mouse xenografted with HEL cells assessed as animal death at 5 to 10 mg/kg, po qd for 14 days consecutively; assay type: organism-based; details: in vivo, 336 h, dose 5-10 mg/kg, time 14 day

T2 sequence (Q13547 whole entry): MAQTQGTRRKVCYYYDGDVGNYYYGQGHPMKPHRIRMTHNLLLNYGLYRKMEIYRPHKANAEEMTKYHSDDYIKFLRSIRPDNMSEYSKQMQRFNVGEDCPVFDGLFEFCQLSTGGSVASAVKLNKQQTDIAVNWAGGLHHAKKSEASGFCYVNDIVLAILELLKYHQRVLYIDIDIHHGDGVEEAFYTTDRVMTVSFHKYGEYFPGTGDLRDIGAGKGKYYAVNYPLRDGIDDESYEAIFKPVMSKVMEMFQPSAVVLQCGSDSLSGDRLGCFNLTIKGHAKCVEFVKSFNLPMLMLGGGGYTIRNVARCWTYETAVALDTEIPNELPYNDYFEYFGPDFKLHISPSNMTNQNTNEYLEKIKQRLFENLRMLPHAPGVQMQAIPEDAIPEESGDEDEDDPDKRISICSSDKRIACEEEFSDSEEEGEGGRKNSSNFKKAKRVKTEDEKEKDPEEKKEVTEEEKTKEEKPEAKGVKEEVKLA
Sequence of DNA topoisomerase 2-alpha (Homo sapiens) (P11388 whole entry): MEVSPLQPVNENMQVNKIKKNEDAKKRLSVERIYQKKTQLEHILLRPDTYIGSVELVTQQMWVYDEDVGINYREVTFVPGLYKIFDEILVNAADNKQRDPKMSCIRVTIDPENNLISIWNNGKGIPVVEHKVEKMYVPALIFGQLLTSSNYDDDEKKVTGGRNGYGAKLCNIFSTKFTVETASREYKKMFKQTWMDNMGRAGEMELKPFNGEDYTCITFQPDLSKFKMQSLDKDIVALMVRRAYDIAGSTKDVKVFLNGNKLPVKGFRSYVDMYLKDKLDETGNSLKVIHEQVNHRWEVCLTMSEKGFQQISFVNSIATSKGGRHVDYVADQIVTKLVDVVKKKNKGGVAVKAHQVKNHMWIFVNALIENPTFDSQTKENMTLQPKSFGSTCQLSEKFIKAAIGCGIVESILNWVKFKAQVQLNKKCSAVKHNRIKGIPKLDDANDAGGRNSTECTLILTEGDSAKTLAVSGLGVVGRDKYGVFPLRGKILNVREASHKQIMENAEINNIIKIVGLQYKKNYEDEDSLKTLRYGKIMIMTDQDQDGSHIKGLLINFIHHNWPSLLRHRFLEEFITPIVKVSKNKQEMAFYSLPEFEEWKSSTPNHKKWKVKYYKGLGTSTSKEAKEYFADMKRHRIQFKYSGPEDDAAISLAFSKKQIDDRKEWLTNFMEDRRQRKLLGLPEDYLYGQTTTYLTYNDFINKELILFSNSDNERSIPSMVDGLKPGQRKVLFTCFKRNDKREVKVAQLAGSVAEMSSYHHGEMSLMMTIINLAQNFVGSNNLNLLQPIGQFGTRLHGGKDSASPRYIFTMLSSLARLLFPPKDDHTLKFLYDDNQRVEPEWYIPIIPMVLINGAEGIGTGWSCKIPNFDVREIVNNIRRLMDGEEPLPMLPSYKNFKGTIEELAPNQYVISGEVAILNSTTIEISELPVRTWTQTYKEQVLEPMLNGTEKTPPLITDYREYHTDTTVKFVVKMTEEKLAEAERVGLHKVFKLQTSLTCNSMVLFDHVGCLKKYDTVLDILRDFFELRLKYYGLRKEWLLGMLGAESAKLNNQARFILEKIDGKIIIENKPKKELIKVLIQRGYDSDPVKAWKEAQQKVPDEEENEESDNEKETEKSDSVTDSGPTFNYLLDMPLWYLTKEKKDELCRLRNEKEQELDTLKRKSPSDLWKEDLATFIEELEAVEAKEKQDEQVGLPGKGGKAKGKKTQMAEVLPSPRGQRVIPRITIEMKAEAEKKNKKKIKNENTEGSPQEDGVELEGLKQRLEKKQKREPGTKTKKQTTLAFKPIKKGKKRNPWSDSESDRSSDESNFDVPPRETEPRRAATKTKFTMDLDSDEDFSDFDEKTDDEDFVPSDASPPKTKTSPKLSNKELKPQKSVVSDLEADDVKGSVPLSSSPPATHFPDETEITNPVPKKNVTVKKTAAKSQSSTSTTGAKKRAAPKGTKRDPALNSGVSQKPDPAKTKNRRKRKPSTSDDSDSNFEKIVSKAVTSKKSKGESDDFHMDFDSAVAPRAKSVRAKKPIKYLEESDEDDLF
Sequence of Histone deacetylase 2 (Q92769 whole entry): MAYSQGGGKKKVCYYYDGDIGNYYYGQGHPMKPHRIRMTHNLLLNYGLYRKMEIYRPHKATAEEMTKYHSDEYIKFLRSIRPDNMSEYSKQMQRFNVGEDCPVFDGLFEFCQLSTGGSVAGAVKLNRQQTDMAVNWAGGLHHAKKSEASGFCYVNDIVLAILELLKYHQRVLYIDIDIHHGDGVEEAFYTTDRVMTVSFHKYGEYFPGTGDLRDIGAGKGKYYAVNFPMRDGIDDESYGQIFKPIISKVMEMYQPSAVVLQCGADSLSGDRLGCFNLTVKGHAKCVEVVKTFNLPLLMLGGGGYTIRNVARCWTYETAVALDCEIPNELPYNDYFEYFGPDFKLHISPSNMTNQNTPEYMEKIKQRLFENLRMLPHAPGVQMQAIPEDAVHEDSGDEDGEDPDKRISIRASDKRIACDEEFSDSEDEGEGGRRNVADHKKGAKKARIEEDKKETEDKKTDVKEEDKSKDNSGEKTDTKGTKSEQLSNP

Structure (SMILES): CN1c2ccc(F)cc2C(=O)N2CCc3c([nH]c4ccc(OCc5ccc(/C=C/C(=O)NO)cc5)cc34)C21 (configuration not stated)
- inhibition [1]: Active
- IC50 (Histone deacetylase 1 [2]): 36 nM
- IC50 (MCF7): > 2000 nM
- inhibition [3]: Active
- IC50 (Histone deacetylase 2): 140 nM
- IC50 [4]: 89 nM
- inhibition (Histone deacetylase 1 [5]): Active
- Activity (HEL [6]): 56.02%
- Activity (HEL [7]): 9.8%
- Activity (HEL [8]): 25.8%
- half-life [9]: 31.5 min
- Activity [10]: Non-Toxic

Source: ChEMBL document CHEMBL5046291, “Evodiamine-Inspired Topoisomerase-Histone Deacetylase Dual Inhibitors: Novel Orally Active Antitumor Agents for Leukemia Therapy” (J Med Chem, 2022)
